According to paper PMC5063977 (The Journal of Biological Chemistry, 2016):

Key:
RAMP2-CLR (AM1 receptor) [1] = target: T1, RAMP2-CLR (AM1 receptor) (Homo sapiens, UniProt O60895+Q16602); experiment: S. cerevisiae growth assay, GPA1/Gαs chimera, RAMP2 + CLR; assay type: cell-based; conditions: percentage of yeast strain MMY11 (lacking GPA1); 20 h; mean ± S.E., n = 7
T1 construct: FLAG; expressed in transfected cells; host or cells: HEK-293 or HEK-293S cells, transient transfection, 1:1 RAMP:CLR
Experimental: FIGURE 1. […] Reporter gene activity was determined following 20 h of stimulation with each ligand. Data are expressed as a percentage of the maximum response observed in yeast strain MMY11 (lacking GPA1) and are means ± S.E. of n individual data sets. […] Data were determined as statistically different from the cognate ligand for each receptor (*, p < 0.05; **, p < 0.01; ***, p < 0.001) using a one-way ANOVA with Bonferroni's post-test.
General yeast procedures were performed as described previously ([22], [24]). The human CLR was introduced into yeast cells under the control of the PGK promoter using a plasmid containing ura3 (pDT-PGK). […] Receptor signaling was measured using the yeast growth assay as described previously ([24]). […] A fluorescein signal was detected as an increase in fluorescence (excitation wavelength = 485 nm, emission wavelength = 535 nm) as a measure of growth. Different concentrations of ligand (0.01 nM–100 μM) were assayed using 96-well plates, and fluorescence was detected using a Tecan Infinite M200 microplate reader (Tecan Ultra Evolution, Reading, UK) or a Mithras LB 940 microplate reader (Berthold Technologies, Harpenden, UK) for 20 h.
Data analysis for cAMP assays was performed in GraphPad Prism 6.0f (San Diego, CA). […] To quantitate the ligand-dependent response in the yeast system, a strain lacking GPA1 (MMY11), grown in rich medium, was used as a standard ([72]). […]

RAMP2-CLR (AM1 receptor) [2] = target: T1, RAMP2-CLR (AM1 receptor); experiment: S. cerevisiae growth assay, GPA1/Gαq chimera, RAMP2 + CLR; assay type: cell-based; conditions: percentage of yeast strain MMY11 (lacking GPA1); 24-h; mean ± S.E., n = 6
Experimental: FIGURE 7. […] Reporter gene activity was determined following 24-h stimulation. All data are expressed as percentage of the maximum response observed in yeast strain MMY11 and are means ± S.E. of n individual data sets. D, Bar chart showing the efficacy of each ligand for each RAMP-CLR combination at the Gαq chimera determined via application of the operational model of receptor agonism (Ref. [34] and Table 1). Data were determined as statistically different from the cognate ligand for each receptor (***, p < 0.001; ****, p < 0.0001) using one-way ANOVA with Bonferroni's post-test. E, signaling bias plots were calculated as ΔΔ(τ/Ka) values on a logarithmic scale for each ligand and for each chimera G protein for the three individual RAMP-CLR complexes.
General yeast procedures were performed as described previously ([22], [24]). […] Receptor signaling was measured using the yeast growth assay as described previously ([24]). […] A fluorescein signal was detected as an increase in fluorescence (excitation wavelength = 485 nm, emission wavelength = 535 nm) as a measure of growth. Different concentrations of ligand (0.01 nM–100 μM) were assayed using 96-well plates, and fluorescence was detected using a Tecan Infinite M200 microplate reader (Tecan Ultra Evolution, Reading, UK) or a Mithras LB 940 microplate reader (Berthold Technologies, Harpenden, UK) for 20 h. […]

T1 sequence (Q16602 23-461): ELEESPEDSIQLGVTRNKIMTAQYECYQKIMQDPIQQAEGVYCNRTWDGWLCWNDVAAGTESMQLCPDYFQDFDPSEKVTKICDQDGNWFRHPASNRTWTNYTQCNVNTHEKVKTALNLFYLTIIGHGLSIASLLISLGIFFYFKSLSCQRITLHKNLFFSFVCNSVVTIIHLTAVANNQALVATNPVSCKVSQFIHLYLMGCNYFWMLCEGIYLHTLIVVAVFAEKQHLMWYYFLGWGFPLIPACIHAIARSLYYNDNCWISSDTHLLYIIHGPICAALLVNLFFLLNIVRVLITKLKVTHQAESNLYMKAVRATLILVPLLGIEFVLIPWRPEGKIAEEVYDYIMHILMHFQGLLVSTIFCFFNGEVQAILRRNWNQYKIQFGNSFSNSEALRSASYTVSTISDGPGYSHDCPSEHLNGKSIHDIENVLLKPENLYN
T1 sequence (O60895 43-175): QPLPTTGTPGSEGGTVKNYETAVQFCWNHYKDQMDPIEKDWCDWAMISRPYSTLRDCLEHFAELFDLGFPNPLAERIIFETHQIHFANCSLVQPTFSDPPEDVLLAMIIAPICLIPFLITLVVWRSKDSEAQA

Emax (RAMP2-CLR (AM1 receptor) [1]): 19.9 ± 2.5%
Emax (RAMP2-CLR (AM1 receptor) [2]): 11.3 ± 1.3%
SMILES: CSCC[C@H](NC(=O)[C@H](CC(C)C)NC(=O)[C@H](CCC(N)=O)NC(=O)[C@H](Cc1c[nH]c2ccccc12)NC(=O)[C@H](CC(C)C)NC(=O)[C@H](CCCNC(=N)N)NC(=O)[C@H](Cc1c[nH]cn1)NC(=O)[C@H](CO)NC(=O)[C@H](CC(C)C)NC(=O)[C@H](CC(N)=O)NC(=O)[C@H](CCC(N)=O)NC(=O)[C@@H](NC(=O)[C@H](CCC(N)=O)NC(=O)[C@@H]1CSSC[C@H](NC(=O)CNC(=O)[C@@H](NC(=O)[C@H](CCCNC(=N)N)NC(=O)[C@H](CC(C)C)NC(=O)[C@H](CC(C)C)NC(=O)[C@H](CCC(N)=O)NC(=O)[C@H](C)NC(=O)[C@H](CCC(N)=O)NC(=O)[C@@H](N)[C@@H](C)O)C(C)C)C(=O)N[C@@H](C(C)C)C(=O)N[C@@H](CC(C)C)C(=O)NCC(=O)N[C@@H]([C@@H](C)O)C(=O)N1)C(C)C)C(=O)NCC(=O)N1CCC[C@H]1C(=O)N[C@@H](C)C(=O)NCC(=O)N[C@@H](CCCNC(=N)N)C(=O)N[C@@H](CCC(N)=O)C(=O)N[C@@H](CC(=O)O)C(=O)N[C@@H](CO)C(=O)N[C@@H](C)C(=O)N1CCC[C@H]1C(=O)N[C@H](C(=O)N[C@@H](CC(=O)O)C(=O)N1CCC[C@H]1C(=O)N[C@@H](CO)C(=O)N[C@@H](CO)C(=O)N1CCC[C@H]1C(=O)N[C@@H](Cc1c[nH]cn1)C(=O)N[C@@H](CO)C(=O)N[C@@H](Cc1ccc(O)cc1)C(N)=O)C(C)C [AM2, adrenomedullin 2]
